Data published in US8889878B2, “Haloalky-substituted amides as insecticides and acaricides” (Bayer CropScience AG, priority 2009, dated 2014).

Assays:
[1] = logP by HPLC on reverse-phase column (EEC Directive 79/831 Annex V.A8); format: physicochemical
Description: The logP values reported in the above Tables and Preparation Examples were determined according to EEC Directive 79/831 Annex V.A8 by HPLC (High Performance Liquid Chromatography) on a reverse-phase column (C18). Temperature 43° C.

[2] = tested on: armyworm (Spodoptera frugiperda); experiment: Spodoptera frugiperda test (SPODFR spray treatment), Example 15; format: in vivo; conditions: maize leaf discs sprayed, after 7 days
Description: Spodoptera frugiperda Test (SPODFR Spray Treatment)
• Solvent: 78.0 parts by weight of acetone • 1.5 parts by weight of dimethylformamide • Emulsifier: 0.5 part by weight of alkylaryl polyglycol ether
To prepare an appropriate active ingredient formulation, 1 part by weight of active ingredient is mixed with the stated amounts of solvent and emulsifier, and the concentrate is diluted with emulsifier-containing water to the desired concentration. Leaf discs from maize (Zea mays) are sprayed with an active ingredient formulation of the desired concentration and, after drying, populated with caterpillars of the armyworm (Spodoptera frugiperda).
After 7 days, the efficacy in % is determined. 100% means that all caterpillars were killed; 0% means that no caterpillars were killed.

[3] = HPLC, C18 reverse phase, 43° C., acidic range pH 2.7, calibration with alkan-2-ones
[4] = HPLC-MS, HPLC on reverse-phase column

| SMILES | logP ([1]; HPLC-MS) | efficacy in % ([2]; application rate 100 g/ha) | other results |
| --- | --- | --- | --- |
| C#CC(C)(C)NC(=O)c1ccc(/C=C/C(=O)NC(c2cccc(C(F)(F)F)c2)C(F)(F)F)cc1Cl (racemic) [Ia-196] | HPLC-MS: logP = 3.64; mass | 83% |  |
| N#Cc1cnn(-c2ccc(/C=C/C(=O)NC(c3cccc(C(F)(F)F)c3)C(F)(F)F)cc2Cl)c1 (racemic) [Ia-200] | HPLC-MS: logP = 3.83; mass | 100% |  |
| O=C(/C=C/c1ccc(C(=O)Nc2ccc(F)cn2)c(Cl)c1)NC(c1cccc(C(F)(F)F)c1)C(F)(F)F (racemic) [Ia-203] | HPLC-MS: logP = 3.84; mass | 100% |  |
| O=C(/C=C/c1ccc(C(=O)Nc2ccc([N+](=O)[O-])cn2)c(Cl)c1)NC(c1cccc(C(F)(F)F)c1)C(F)(F)F (racemic) [Ia-204] | HPLC-MS: logP = 3.95; mass | 100% |  |
| N#Cc1ccc(NC(=O)c2ccc(/C=C/C(=O)NC(c3cccc(C(F)(F)F)c3)C(F)(F)F)cc2Cl)nc1 (racemic) [Ia-205] | HPLC-MS: logP = 3.72; mass | 100% |  |
| O=C(/C=C/c1ccc(-n2cnc(Cl)n2)c(C(F)(F)F)c1)NC(c1cccc(C(F)(F)F)c1)C(F)(F)F (racemic) [Ia-208] | HPLC-MS: logP = 4.02; mass | 100% |  |
| O=C(/C=C/c1ccc(-n2cncn2)c(Cl)c1)NC(c1ccc(F)c(Cl)c1)C(F)(F)F (racemic) [Ia-209] | HPLC-MS: logP = 3.15; mass | 83% |  |
| O=C(/C=C/c1ccc(C(=O)Nc2ccc(F)cn2)c(C(F)(F)F)c1)NC(c1cccc(C(F)(F)F)c1)C(F)(F)F (racemic) [Ia-210] | HPLC-MS: logP = 3.93; mass | 100% |  |
| N#Cc1ccc(NC(=O)c2ccc(/C=C/C(=O)NC(c3cccc(C(F)(F)F)c3)C(F)(F)F)cc2C(F)(F)F)nc1 (racemic) [Ia-211] | HPLC-MS: logP = 3.82; mass | 100% |  |
| O=C(/C=C/c1ccc(C(=O)Nc2ccc(F)cn2)c(Br)c1)NC(c1cccc(C(F)(F)F)c1)C(F)(F)F (racemic) [Ia-212] | HPLC-MS: logP = 3.87; mass | 100% |  |
| N#Cc1ccc(NC(=O)c2ccc(/C=C/C(=O)NC(c3cccc(C(F)(F)F)c3)C(F)(F)F)cc2Br)nc1 (racemic) [Ia-214] | HPLC-MS: logP = 3.75; mass | 100% |  |
| CCOCn1c(C(=O)NC(c2cccc(C(F)(F)F)c2)C(F)(F)F)cc2cc(C(=O)NC3CC3)c(Cl)cc21 (racemic) [Ic-27] |  | 100% | logP [1, 3]: HPLC-MS: logP = 3.81; mass |
| C=CCn1c(C(=O)NC(c2cccc(C(F)(F)F)c2)C(F)(F)F)cc2cc(C(=O)NC3CC3)c(Cl)cc21 (racemic) [Ic-29] |  | 100% | logP [1, 3]: HPLC-MS: logP = 3.86; mass |
| O=C(/C=C/c1ccc(C(=O)NCc2ccccn2)cc1)NC(c1cccc(C(F)(F)F)c1)C(F)(F)F (stereo not shown) [Ia-7] | HPLC-MS: logP = 2.45; mass |  | efficacy in % ([2]; application rate 500 g/ha): 83% |
| N#Cc1cc(/C=C/C(=O)NC(c2cc(Cl)ccc2Cl)C(F)(F)F)ccc1-n1cncn1 (stereo not shown) [Ia-15] | HPLC-MS: logP = 3.19; mass |  | efficacy in % ([2]; application rate 500 g/ha): 83% |
| CC(NC(=O)c1ccc(/C=C/C(=O)NC(c2cccc([N+](=O)[O-])c2)C(F)(F)F)cc1C(F)(F)F)C(F)(F)F (stereo not shown) [Ia-28] | HPLC-MS: logP = 3.83; mass |  | efficacy in % ([2]; application rate 500 g/ha): 83% |
| O=C(/C=C/c1ccc(C(=O)Nc2ncccn2)c(C(F)(F)F)c1)NC(c1cccc(C(F)(F)F)c1)C(F)(F)F (stereo not shown) [Ia-119] | HPLC-MS: logP = 3.11; mass | 100% |  |
| O=C(/C=C/c1ccc(C(=O)Nc2ncc(Cl)cn2)c(C(F)(F)F)c1)NC(c1cccc(C(F)(F)F)c1)C(F)(F)F (stereo not shown) [Ia-137] | HPLC-MS: logP = 3.62; mass | 100% |  |

| SMILES | logP ([1]; HPLC-MS) | efficacy in % ([2]; application rate 100 g/ha) | other results |
| --- | --- | --- | --- |
| O=C(/C=C/c1ccc(C(=O)Nc2cc(Cl)ccn2)c(Cl)c1)NC(c1cccc(C(F)(F)F)c1)C(F)(F)F (stereo not shown) [Ia-165] | HPLC-MS: logP = 4,23; mass | 100% |  |
| CC(C#N)(NC(=O)c1ccc(/C=C/C(=O)NC(c2cccc(C(F)(F)F)c2)C(F)(F)F)cc1C(F)(F)F)C1CC1 (stereo not shown) [Ia-172] | HPLC-MS: logP = 3.74; mass | 100% |  |
| CC(NC(=O)c1ccc(/C=C/C(=O)NC(c2cccc(C(F)(F)F)c2)C(F)(F)F)cc1Br)C(F)(F)F (stereo not shown) [Ia-176] | HPLC-MS: logP = 3.78; mass | 100% |  |
| C#CC(C)NC(=O)c1ccc(/C=C/C(=O)NC(c2cccc(C(F)(F)F)c2)C(F)(F)F)cc1Br (stereo not shown) [Ia-178] | HPLC-MS: logP = 3.44; mass | 100% |  |
| O=C(/C=C/c1ccc(C(=O)Nc2ncccc2Cl)c(Cl)c1)NC(c1cccc(C(F)(F)F)c1)C(F)(F)F (stereo not shown) [Ia-183] | HPLC-MS: logP = 3.44; mass | 83% |  |
| O=C(/C=C/c1ccc(C(=O)Nc2cccnn2)c(C(F)(F)F)c1)NC(c1cccc(C(F)(F)F)c1)C(F)(F)F (stereo not shown) [Ia-225] | HPLC-MS: logP = 3.27; mass | 100% |  |
| O=C(/C=C/c1ccc(C(=O)Nc2cnc(Br)cn2)c(C(F)(F)F)c1)NC(c1cccc(C(F)(F)F)c1)C(F)(F)F (stereo not shown) [Ia-226] | HPLC-MS: logP = 4.15; mass | 100% |  |
| O=C(/C=C/c1ccc(C(=O)NC2CC2)c(Cl)c1)NC(c1cccc(Cl)c1)C(F)(F)F (stereo not shown) [Ia-235] | HPLC-MS: logP = 3.03; mass |  | efficacy in % ([2]; application rate 500 g/ha): 83% |
| CC(=O)NCc1ccc(/C=C/C(=O)NC(c2cccc(C(F)(F)F)c2)C(F)(F)F)cc1C(F)(F)F (stereo not shown) [Ia-247] | HPLC-MS: logP = 3.24; mass | 100% |  |
| CC(=O)NCc1ccc(/C=C/C(=O)NC(c2cccc(C(F)(F)F)c2)C(F)(F)F)cc1Cl (stereo not shown) [Ia-248] | HPLC-MS: logP = 3.06; mass | 100% |  |
| CC(C)C(=O)N(Cc1ccccn1)Cc1ccc(/C=C/C(=O)NC(c2cccc(C(F)(F)F)c2)C(F)(F)F)cc1F (stereo not shown) [Ia-253] | HPLC-MS: logP = 3.37; mass | 100% |  |
| CCN(C(=O)c1ccc(/C=C/C(=O)NC(c2cccc(C(F)(F)F)c2)C(F)(F)F)cc1C(F)(F)F)C1CC1 (stereo not shown) [Ia-257] | HPLC-MS: logP = 3.89; mass | 100% |  |
| O=C(/C=C/c1ccc(C(=O)N(Cc2cccnc2)C2CC2)c(C(F)(F)F)c1)NC(c1cccc(C(F)(F)F)c1)C(F)(F)F (stereo not shown) [Ia-258] | HPLC-MS: logP = 2.8; mass | 100% |  |
| Cc1ccnc(NC(=O)c2ccc(/C=C/C(=O)NC(c3cccc(C(F)(F)F)c3)C(F)(F)F)cc2C(F)(F)F)c1 (stereo not shown) [Ia-259] | HPLC-MS: logP = 3.61; mass | 100% |  |
| N#Cc1ccnc(NC(=O)c2ccc(/C=C/C(=O)NC(c3cccc(C(F)(F)F)c3)C(F)(F)F)cc2C(F)(F)F)c1 (stereo not shown) [Ia-260] |  | 100% | logP [1, 4]: HPLC-MS: logP = 3.61; mass |
| O=C(/C=C/c1ccc(CNc2cc(Cl)ccn2)c(C(F)(F)F)c1)NC(c1cccc(C(F)(F)F)c1)C(F)(F)F (stereo not shown) [Ia-264] |  | 100% | logP [1, 4]: HPLC-MS: logP = 4.28; mass |
| CC(NC(=O)CC1CC1)c1ccc(/C=C/C(=O)NC(c2cccc(C(F)(F)F)c2)C(F)(F)F)nc1 (stereo not shown) [If-3] |  | 100% |  |
| NC(c1cc(F)cc(C(F)(F)F)c1)C(F)(F)F (stereo not drawn) [α,3-Bis(trifluoromethyl)-5-fluorobenzenemethanamine] |  |  | chromatographic logP ([1]; reverse-phase C18 HPLC column, pH 2.7, HPLC, C18 reverse phase, 43° C., acidic range pH 2.7, calibration with alkan-2-ones): 2.51 |
